Measured values: patent US20240358790A1, “COMPOSITIONS AND METHODS FOR TREATING AUTOIMMUNITY, INCLUDING AUTOIMMUNITY ASSOCIATED WITH CANCER AND CANCER THERAPY” (Interk Peptide Therapeutics Limited, priority 2021, published 2024)
Non-standard residues stand in square brackets, D forms with d. Residues, ends and D or L forms follow the SMILES beside them. No end group written: not given here. ξ: configuration not given here. ξGly(decyl) = CCCCCCCCCCC(N)C(=O)O; 2Adod = 2-aminododecanoic acid

Key:
c-Src = c-Src (Homo sapiens, UniProt P12931); assay: c-Src kinase activity assay ([γ33P-ATP], filtermat); type: biochemical
Experimental: c-Src, Fyn, Hck is incubated with 8 mM MOPS pH 7.0, 0.2 mM EDTA, 250 μM KVEKIGEGTYGVVYK (Cdc2 peptide), 10 mM MgAcetate and [γ33P-ATP] (specific activity approx. 500 cpm/pmol, concentration as required). The reaction is initiated by the addition of the MgATP mix. After incubation for 40 minutes at room temperature, the reaction is stopped by the addition of 3% phosphoric acid solution. 10 μL of the reaction is then spotted onto a P30 filtermat and washed three times for 5 minutes in 75 mM phosphoric acid and once in methanol prior to drying and scintillation counting.

B16-F10 melanoma cells = assay: SRB proliferation assay, B16-F10 melanoma cells; type: cell-based; conditions: 2.5 μM, 72 h
Experimental: (§1) In addition, doxorubicin at 2.5 μM was tested in 5 replicate wells as a positive control. Cells were cultured for a further 72 h in the presence of drug or control before the cell culture medium was removed and the attached cells fixed in ice-cold trichloroacetic acid. […] Each experiment was performed on two independent occasions (biological replicates) and data were analysed in GraphPad Prism 9 using non-linear fit of log (inhibitor) versus response.

Lewis Lung Cancer cells = assay: SRB proliferation assay, Lewis Lung Cancer cells; type: cell-based; conditions: 2.5 μM, 72 h
Experimental: as §1

IL-2 = IL-2 ELISA, anti-CD3/anti-CD28 stimulated isolated CD3+ T cells; type: cell-based, human; conditions: 72 hrs
Lck = Lck (Homo sapiens, UniProt P06239); assay: Lck kinase activity assay ([γ33P-ATP], filtermat); type: biochemical
Chain of Lck (P06239 whole entry): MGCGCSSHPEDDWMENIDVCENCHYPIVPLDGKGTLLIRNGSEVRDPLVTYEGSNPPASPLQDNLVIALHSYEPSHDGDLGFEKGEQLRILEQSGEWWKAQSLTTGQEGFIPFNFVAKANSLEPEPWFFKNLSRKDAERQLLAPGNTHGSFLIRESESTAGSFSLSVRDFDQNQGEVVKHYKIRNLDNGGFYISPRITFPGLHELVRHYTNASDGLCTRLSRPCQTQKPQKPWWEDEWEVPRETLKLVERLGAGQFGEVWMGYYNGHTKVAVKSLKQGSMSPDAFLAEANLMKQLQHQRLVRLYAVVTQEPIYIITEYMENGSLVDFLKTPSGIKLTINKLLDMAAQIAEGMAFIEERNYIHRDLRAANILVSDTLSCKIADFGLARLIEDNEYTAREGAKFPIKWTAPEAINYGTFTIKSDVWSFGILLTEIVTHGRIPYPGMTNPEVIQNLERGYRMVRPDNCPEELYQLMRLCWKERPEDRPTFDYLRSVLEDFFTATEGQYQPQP
Experimental: Lck is incubated with 50 mM Tris pH 7.5, 0.1 mM EGTA, 0.1 mM Na3VO4, 250 μM KVEKIGEGTYGWYK (Cdc2 peptide), 10 mM Magnesium acetate and [γ33P-ATP] (specific activity approx. 500 cpm/pmol, concentration as required). The reaction is initiated by the addition of the Mg/ATP mix. After incubation for 40 minutes at room temperature, the reaction is stopped by the addition of phosphoric acid to a concentration of 0.5%. 10 μL of the reaction is then spotted onto a P30 filtermat and washed four times for 4 minutes in 0.425% phosphoric acid and once in methanol prior to drying and scintillation counting.”

exhausted CD4+ cells = assay: IL-2 from exhausted CD4+ cells upon restimulation (MBP-Tracker mouse splenocytes); type: cell-based, mice; conditions: 72 hrs, multiplex immunoassay
Experimental: Supernatants were collected after 72 hrs in culture to assess IL-2 cytokine production measured by multiplex immunoassay. Data are presented as mean+/−SEM from 4 biological replicates normalised to vehicle control (0). **P<0.01, Non-parametric one way ANOVA (Freidman) with Dunns post-test was used to compare groups at each dose level to lowest level (0.08 μM).
T examine the ability of peptides comprising D-amino acids induce low levels of IL-2, IL-2 expression on exhausted CD4+ cells upon restimulation was examined. In brief, a single spleen per experiment was removed from MBP-Tracker mice and processed to generate a single cell suspension of splenocytes. Cells were resuspended at 3×10^6/mL and stimulated with WT-MBP (control, non-exhausted cells) or APL-MBP (to generate exhausted cells). Cells were stimulated for 72 hr. Following stimulation, T cells were purified by ficoll density gradient and subsequently re-plated at 2×10^6/mL in 20U/mL IL-2 for four days. After 4 days, cells were collected, resuspended (4×10^5/mL, final 2×10^4 per well) and restimulated using irradiated APC (from B10PL×C57BL/6 mice, 4×10^6/mL, final 2×10^5 per well) a single dose of APL-MBP peptide, together with test or reference substance or appropriate controls for 72 hrs. […]

CD28 = CD28 expression on CD4+ T cells of stimulated PBMCs; type: cell-based, human; conditions: PBMCs + anti-CD3, 72 hrs
Experimental: FIG. 7: RSKAKNPLYR-(2Adod)4-NH2 increases CD28 levels on T cells. […] Data presented indicates the mean respective expression in CD4+ T cell populations in response to peptide treatment, +/−SEM, n=4. Data was analysed by two-way ANOVA with Dunnett's post test, *P<0.05, **P<0.01, ***P<0.001, ****P<0.0001. *** indicates all bars under the line are significant compared to vehicle. Red dotted line indicates unstimulated PBMC expression.
Because full activation of MAP kinases requires the presence of the TCR co-receptor, the present inventors sought to examine the expression of CD28 on T cells.

MAP4K1 (HPK1) = MAP4K1 (HPK1) (Homo sapiens, UniProt Q92918); assay: MAP4K1 (HPK1) kinase activity; type: biochemical
Chain of MAP4K1 (HPK1) (Q92918 whole entry): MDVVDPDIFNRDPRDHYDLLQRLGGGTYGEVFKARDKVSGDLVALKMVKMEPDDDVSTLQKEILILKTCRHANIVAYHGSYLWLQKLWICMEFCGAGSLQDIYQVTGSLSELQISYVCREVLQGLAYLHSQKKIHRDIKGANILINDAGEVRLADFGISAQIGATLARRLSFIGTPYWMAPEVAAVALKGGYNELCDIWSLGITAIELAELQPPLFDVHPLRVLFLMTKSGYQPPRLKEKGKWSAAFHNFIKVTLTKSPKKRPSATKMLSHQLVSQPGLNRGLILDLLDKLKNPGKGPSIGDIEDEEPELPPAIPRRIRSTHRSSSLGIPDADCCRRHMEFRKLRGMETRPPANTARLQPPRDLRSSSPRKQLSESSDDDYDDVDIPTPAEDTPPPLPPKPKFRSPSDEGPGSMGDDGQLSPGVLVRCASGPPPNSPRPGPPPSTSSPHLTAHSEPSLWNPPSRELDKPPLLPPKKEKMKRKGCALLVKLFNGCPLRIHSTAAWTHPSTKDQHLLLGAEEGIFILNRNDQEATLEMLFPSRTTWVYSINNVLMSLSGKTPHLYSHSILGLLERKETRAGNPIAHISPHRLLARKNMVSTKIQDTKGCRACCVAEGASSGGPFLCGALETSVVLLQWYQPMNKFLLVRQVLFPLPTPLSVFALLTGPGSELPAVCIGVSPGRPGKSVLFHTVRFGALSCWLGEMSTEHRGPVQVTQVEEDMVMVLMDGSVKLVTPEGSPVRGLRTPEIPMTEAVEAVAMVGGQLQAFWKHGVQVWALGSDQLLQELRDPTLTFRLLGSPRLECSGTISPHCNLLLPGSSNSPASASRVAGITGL

[1] = PET-CT uptake of Cu64-labelled NOTA-peptide in lung and blood after SC, IP, oral gavage; type: in vivo; conditions: 200 ug SC/IP and 1 mg OG, mice
Experimental: For FIG. 1d, 1,4,7-Triazacyclononane-1,4,7-triacetic acid (NOTA) conjugated peptides were acquired from Auspep, reconstituted in deionised water at 10 mg/mL and used without further purification. Peptides were incubated with ^64Cu at 1000-fold excess of peptide in 0.1 M pH 5.5 ammonium acetate buffer for 45 minutes at 37° C. 1 μL Samples of each solution were taken and mixed 1:1 with 50 mM EDTA. EDTA incubated sample or neat solution was spotted on TLC paper (Agilent iTLC-SG Glass microfiber chromatography paper impregnated with silica gel) and run with 50:50 H2O:ethanol. Detection of radiolabelled species migration was then achieved by imaging on a Bruker In Vivo MS FX Pro imaging system using a radioisotopic phosphor screen. Control experiments were conducted to monitor the elution profile of free ^64Cu and ^64Cu bound to EDTA for quality control. […]
The PET Images were reconstructed using an ordered-subset expectation maximization (OSEM2D) algorithm and analysed using the Inveon Research Workplace software (IRW 4.1) (Siemens) which allows fusion of CT and PET images and definition of regions of interest (ROIs). […] Activity concentrations were then expressed as percent of the decay-corrected injected activity per cm^3 of tissue that can be approximate as percentage injected dose/g (% ID/g). […]

RSKAKNPLYR-(2Adod)3-NH2 (RSKAKNPLYR-{2Adod-2Adod-2Adod-NH2}) [IK14003, … conjugated to three 2-amino dodecanoic acid residues]
effect on c-Src activity (c-Src): stimulated c-Src activity above 1 uM

COc1cccc2c1C(=O)c1c(O)c3c(c(O)c1C2=O)C[C@@](O)(C(=O)CO)C[C@@H]3O[C@H]1C[C@H](N)[C@H](O)[C@H](C)O1 [doxorubicin]
kill in vitro, B16-F10 melanoma cells (B16-F10 melanoma cells): 100% | kill in vitro, Lewis Lung Cancer cells (Lewis Lung Cancer cells): 100%

COc1cc(-c2nn([C@H]3CC[C@H](N4CCN(C(C)=O)CC4)CC3)c3ncnc(N)c23)ccc1NC(=O)c1cc2ccccc2n1C [A-770041]
enhancement of IL-2 production, Lck inhibitor compared with IK14004 (IL-2): ten-fold greater enhancement | increase in IL-2 secretion above vehicle control (IL-2; A-770041 at 100 nM): 300%

RSKAKNPLYR [IK14000]
effect on c-Src activity (c-Src): inhibits c-Src | effect on Lck activity (Lck): neither the 10 mer RSKAKNPLYR (designated IK14000) nor 4 lipidic peptide residues designated IK00041 activated Lck

rskaknplyr-(2Adod)4-NH2 ([dR][dS][dK][dA][dK][dN][dP][dL][dY][dR]-{2Adod-2Adod-2Adod-2Adod-NH2}) […-(2Adod)4-NH2 comprising D amino acids]
IL-2 expression on exhausted CD4+ cells upon restimulation (exhausted CD4+ cells): increases IL-2 expression | CD28 levels (CD28): increased CD28 levels | effect on MAP4K1 (HPK1) kinase activity (MAP4K1 (HPK1)): inhibits

CCCCCCCCCCC(NC(=O)C(CCCCCCCCCC)NC(=O)C(CCCCCCCCCC)NC(=O)C(CCCCCCCCCC)NC(=O)[C@H](CCCNC(=N)N)NC(=O)[C@H](Cc1ccc(O)cc1)NC(=O)[C@H](CC(C)C)NC(=O)[C@@H]1CCCN1C(=O)[C@H](CC(N)=O)NC(=O)[C@H](CCCCN)NC(=O)[C@H](C)NC(=O)[C@H](CCCCN)NC(=O)[C@H](CO)NC(=O)[C@@H](N)CCCNC(=N)N)C(N)=O (some centres unmarked) [IK14004, RSKAKNPLYR-(2Adod)4-NH2] (H-RSKAKNPLYR[ξGly(decyl)][ξGly(decyl)][ξGly(decyl)][ξGly(decyl)]-NH2; N-terminus assumed)
tolerability of doses [1]: Well tolerated
